Data: publication PMC6882465, “Towards discovery of new leishmanicidal scaffolds able to inhibit Leishmania GSK-3” (Journal of Enzyme Inhibition and Medicinal Chemistry, 2019)

Target: LdGSK-3 (Leishmania donovani, UniProt A6N857)
Assay: Inhibition of LdGSK-3 with Kinase Glo
Format: biochemical
Details: for % inhibition @ 10µM (initial screening on LdGSK3): Table S2
Description: Assessment of inhibition of LdGSK-3 with Kinase Glo^TM
The reaction was allowed to proceed for 30 min at 30 °C, then it was incubated at room temperature for another 10 min after addition of Kinase Glo reagents (Promega, Ref. V6712). ATP consumption by LdGSK-3 was measured indirectly through end-point luminescence measurement of each well in a Varioskan Flash microplate reader (Thermo).

Sequence of LdGSK-3 (A6N857 entry or part of it): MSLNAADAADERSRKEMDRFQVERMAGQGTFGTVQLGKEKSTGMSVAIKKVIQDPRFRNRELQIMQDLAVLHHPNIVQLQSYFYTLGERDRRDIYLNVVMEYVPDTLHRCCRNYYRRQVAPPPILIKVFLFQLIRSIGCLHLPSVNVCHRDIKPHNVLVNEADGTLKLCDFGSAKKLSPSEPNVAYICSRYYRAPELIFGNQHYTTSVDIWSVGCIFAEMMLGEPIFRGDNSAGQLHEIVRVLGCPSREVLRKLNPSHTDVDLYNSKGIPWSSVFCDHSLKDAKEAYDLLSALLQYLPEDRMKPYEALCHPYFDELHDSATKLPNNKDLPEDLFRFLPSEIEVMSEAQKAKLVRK

Row | Compound | % inhibition @ 10µM (initial screening on LdGSK3) | percentage of inhibition of LdGSK-3 (assayed at 10 µM)
1 | Cc1ccc(Nc2nc(-c3ccccn3)cc(N3CCCC(O)C3)n2)cc1 (stereo not shown) [Compound 48] | 3.25±2.75% | 
2 | c1ccc(Nc2nc3ccccc3[nH]2)nc1 [Compound 40] | 13.50±3.10% | 
3 | COc1cc(C2SCC(=O)Nc3c2c(C)nn3-c2nc3ccccc3s2)cc(OC)c1O (stereo not shown) [Compound 179] | 29.35±2.80% | 
4 | OCC1CCCCN1c1cc(-c2ccccn2)nc(Nc2ccccc2)n1 (stereo not shown) [Compound 99] | 0.60±0.60% | 
5 | CC(C)COC(=O)Nc1ccc(N2CCC(CNS(=O)(=O)c3ccccc3)CC2)c(F)c1 [Compound 46] | 4.95±4.45% | 
6 | COc1ccc(C2=NCC(CSc3nnc(-c4ccc5c(c4)OCO5)o3)S2)cc1 (stereo not shown) [Compound 125] | 10.60±1.00% | 
7 | Br.Nc1nccc(-c2csc(Nc3ccc(Cl)cc3)n2)n1 [Compound 101] | 16.40±2.40% | 
8 | O=C(Nc1cccc(S(=O)(=O)Nc2ccc(Br)cc2)c1)c1ccc([N+](=O)[O-])s1 [Compound 133] | 15.75±4.25% | 
9 | c1ccc(-c2nc(NC3CCCC3)c3ccccc3n2)nc1 [Compound 92] | -0.55±1.25% | 
10 | Cc1ccc(NC(=O)c2ccc([N+](=O)[O-])s2)cc1S(=O)(=O)N1CCOCC1 [Compound 97] | 6.15±1.05% | 
11 | COCc1cnc2c(c1SCc1c(F)cccc1Cl)c(=O)n(C)c(=O)n2C [Compound 148] | 9.60±3.10% | 
12 | Cc1ccc(-c2csc(NC(=O)C=Cc3ccc(S(=O)(=O)N4CCOCC4)cc3)n2)o1 [Compound 69] | 64.27±2.13% | higher than 50%
13 | Br.Fc1ccc(Nc2nc(-c3ccccn3)cs2)cc1 [Compound 171] | 4.25±2.30% | 
14 | CN(Cc1nc2cccc(C(=O)N3CCN(Cc4ccccc4)CC3)c2[nH]1)C1CCCc2cccnc21.O=C(O)C(F)(F)F (stereo not shown) [Compound 91] | 12.65±6.10% | 
15 | COc1cc(OC)cc(C(NS(=O)(=O)c2ccc(Cl)c(C(F)(F)F)c2)c2nccn2C)c1 (stereo not shown) [Compound 139] | 15.95±1.70% | 
16 | Cc1cc2cc(CNc3ccc4c(c3)OCO4)c(=O)n(CCO)c2cc1C [Compound 188] | 20.90±4.45% | 
17 | Cc1nn(-c2nc(N)nc(-c3ccccn3)n2)c(C)c1Cc1ccccc1 [Compound 104] | -0.75±1.55% | 
18 | COc1cccc(-c2c(C)nn(-c3nc(N)nc(-c4ccccn4)n3)c2N)c1 [Compound 61] | -2.20±1.15% | 
19 | N#CN1CC[C@@H](NC(=O)Nc2ccccc2Oc2ccccc2)C1 [Compound 72] | 7.40±4.30% | 
20 | CCOc1ccc(Nc2ccc(S(=O)(=O)N3CCN(C)CC3)cc2[N+](=O)[O-])cc1OCC [Compound 166] | 18.60±2.15% | 
21 | O=C(Nc1cccc(Cl)c1)Nc1ccc([N+](=O)[O-])cc1Cl [Compound 89] | 4.80±2.05% | 

Row | Compound | % inhibition @ 10µM (initial screening on LdGSK3) | percentage of inhibition of LdGSK-3 (assayed at 10 µM)
22 | CCC(=O)N1N=C(c2ccc3c(c2)CCCC3)Sc2c1ncn2C(=O)CC [Compound 127] | 9.65±3.70% | 
23 | CCOc1ccccc1C(=O)Nc1nnc(-c2ccc3c(c2)OCO3)s1 [Compound 191] | 12.20±2.70% | 
24 | CC(C)c1sc(Cl)nc1C(=O)NCCc1nc(C(=O)Nc2ccc3c(c2)OCO3)cs1 [Compound 60] | 0.20±2.80% | 
25 | O=C(CN1CCC2(O)CCCCC2C1c1ccc2c(c1)OCO2)Nc1ccc(Cl)cc1Cl (stereo not shown) [Compound 143] | 2.25±0.35% | 
26 | CCNc1cc(-c2ccccn2)nc(Nc2ccccc2)n1 [Compound 38] | 7.10±1.40% | 
27 | CCOc1ccc2nc(NC(=O)c3ccc([N+](=O)[O-])s3)sc2c1 [Compound 145] | 9.25±0.40% | 
28 | Cc1nc(N2CC(C)OC(C)C2)sc1C(=O)Nc1ccc2c(c1)OCO2 (stereo not shown) [Compound 209] | 16.10±4.80% | 
29 | COc1ccc(NS(=O)(=O)c2cc(NC(=O)c3ccc([N+](=O)[O-])s3)ccc2OC)cc1 [Compound 131] | 19.75±3.70% | 
30 | CC(C)c1nn(-c2nc(N)nc(-c3ccccn3)n2)c(N)c1C1CCCCC1 [Compound 94] | 10.45±0.55% | 
31 | O=C(Nc1nc(-c2ccccn2)cs1)C1CCc2ccccc2C1 (stereo not shown) [Compound 54] | 0.10±1.10% | 
32 | Cc1cn[nH]c1C1CCCN(Cc2nc3ccccc3n2C)C1 (stereo not shown) [Compound 114] | 2.85±0.45% | 
33 | CC(C)(C)Nc1nc(Nc2ccc3c(c2)CS(=O)(=O)C3)nc2[nH]ccc12 [Compound 103] | 25.85±1.25% | 
34 | CC(=O)Nc1ccc(-c2csc(NC(=O)c3ccc([N+](=O)[O-])s3)n2)cc1 [Compound 141] | 8.55±0.55% | 
35 | CC(C)(C)c1csc(NC(=O)c2ccc([N+](=O)[O-])s2)n1 [Compound 181] | 5.90±2.90% | 
36 | Cc1nc(C(=O)Nc2ccc3c(c2)OCO3)nn1-c1ccc(Cl)cc1 [Compound 149] | 8.90±2.10% | 
37 | Cc1nn(-c2ccccc2)nc1CNC(=O)CN(Cc1ccccn1)Cc1ccccn1.O=C(O)C(F)(F)F [Compound 144] | 9.10±1.75% | 
38 | O=C(CN1CCN(c2ccccn2)CC1)Nc1cc(S(=O)(=O)N2CCCCCC2)ccc1Cl [Compound 208] | 10.20±3.25% | 
39 | O=C(Nc1nc2ccccc2[nH]1)c1c(O)c2cccc3c2n(c1=O)CC3 [Compound 155] | 7.50±1.00% | 
40 | Cc1cc(C)n(-c2nc(NC(C)(C)C)nc(N3CCOCC3)n2)n1 [Compound 196] | -2.80±6.35% | 
41 | CC(C)(C)c1cc(NC2CC2)nc(-c2ccccn2)n1 [Compound 50] | 4.70±2.30% | 
42 | Cc1nc(C(=O)Nc2ccc3c(c2)OCO3)nn1-c1ccc(F)cc1 [Compound 198] | 7.15±1.10% | 

Row | Compound | % inhibition @ 10µM (initial screening on LdGSK3) | percentage of inhibition of LdGSK-3 (assayed at 10 µM)
43 | Cc1nc(-c2ccc3c(c2)OCO3)sc1C(=O)NCc1ccc2c(c1)OCO2 [Compound 205] | 14.00±2.25% | 
44 | COc1ccc(-c2csc(NC(=O)c3ccc([N+](=O)[O-])s3)n2)cc1OC [Compound 142] | 7.95±2.05% | 
45 | NC(=O)c1ccsc1NC(=O)c1ccc([N+](=O)[O-])s1 [Compound 117] | 6.20±1.15% | 
46 | Cl.NCc1ccc2c(Cl)cc(Cl)c(O)c2n1 [Compound 121] | 14.80±1.70% | 
47 | CCCc1cc(C(=O)Nc2ncc(-c3cccc(Br)c3)n2C)n[nH]1 [Compound 159] | 8.80±2.70% | 
48 | O=C(CCc1ccc(-c2ccccc2)o1)N1CCN(c2ccc(O)cc2)CC1 [Compound 178] | 28.65±1.95% | 
49 | COc1ccc(Cc2nc(-c3ncc4cccnc4c3O)n[nH]2)cc1OC [Compound 77] | 4.60±0.95% | 
50 | COc1ccc(NS(=O)(=O)c2ccc(S(=O)(=O)N(C)C3CCCCC3)cc2)c2ncccc12 [Compound 135] | 6.85±1.55% | 
51 | O=C(c1cccc(Nc2ncc(-c3ccc4c(c3)OCO4)cn2)c1)N1CCSC1 [Compound 140] | 18.20±7.00% | 
52 | CCN(CC)c1ccc(S(=O)(=O)N(CC)CC)c2nonc12 [Compound 207] | 8.90±5.85% | 
53 | COc1ccc(-c2cnc(NC(=O)c3ccc(F)cc3)n2C)cc1 [Compound 88] | 2.00±1.95% | 
54 | CC(c1ccc2c(c1)CCCC2)N(C)c1ncc2c(N)nc(N)nc2n1 (stereo not shown) [Compound 62] | 12.10±2.40% | 
55 | Cc1nc2c(-c3nc(-c4ccccc4N)n[nH]3)cccn2c1C [Compound 113] | 1.40±0.50% | 
56 | Cc1ccc2onc(Nc3ccnc(Nc4cccc(S(C)(=O)=O)c4)n3)c2c1.O=C(O)C(F)(F)F [Compound 74] | 10.00±0.75% | 
57 | COCc1cc(Nc2ccc(Cl)cc2)nc(-c2ccccn2)n1 [Compound 27] | 6.35±5.75% | 
58 | CNc1nc(C)nc(N2CCc3cc(C(=O)NCc4ccc(-c5nccn5C)cc4Cl)ccc32)n1.O=C(O)C(F)(F)F [Compound 83] | -5.05±0.45% | 
59 | COc1ccc(CNc2cc(C3CC3)nc(-c3nccn3C)n2)cc1.O=C(O)C(F)(F)F [Compound 43] | 15.30±1.60% | 
60 | N#Cc1ccccc1S(=O)(=O)N1CCN(C(=O)CNC(=O)c2ccc3c(c2)OCO3)CC1 [Compound 82] | 1.90±2.60% | 
61 | COCCn1c(-c2ccccc2)cnc1NCc1ccccc1OC.O=C(O)C(=O)O [Compound 174] | 6.00±1.50% | 
62 | CCn1c(NC(=O)Cc2ccc(F)cc2)nc2ccccc21 [Compound 138] | 13.00±3.55% | 
63 | COc1ccc(S(=O)(=O)Nc2ccc(C(=O)Nc3nc(-c4ccccn4)cs3)cc2)cc1 [Compound 175] | 16.65±1.70% | 
